In publication PMC8335354 (Biology of Reproduction, 2021):
Entries after “also recorded” stand apart in the source; their conditions may differ. One block for each compound: values may come before it.

Columns and labels:
[1] = test system: mouse SCNT-derived embryos; settings: cited from earlier work
[2] = test system: mouse SCNT-derived embryos; assay: In vivo development of SCNT-derived embryos, morula/blastocyst transfer; settings: 8 h treatment
[3] = test system: parthenogenetic embryos (zygotic gene activation); assay: Transcriptional activity; format: cell-based, mouse; settings: 2 mM EU from 5 h to 24 h after activation
[4] = test system: mouse SCNT-derived embryos; assay: In vitro development of SCNT-derived embryos treated with HDAC inhibitors; format: cell-based
[5] = test system: mouse SCNT-derived embryos; assay: In vivo development of SCNT-derived embryos, two-cell transfer; settings: for No. of implantations / No. of offspring / No. of placentas only / implantations (%) / offspring (%) / placentas only (%): 8 h treatment, two-cell transfer
[6] = test system: pups derived from HDAC inhibitor-treated SCNT-derived embryos; assay: Body and placental weights of cloned pups at term; format: in vivo, mouse; settings: 19.5 dpc, mean ± SD
[7] = inhibitor treatment 8 h, Table 4

SMILES: CCCC(CCC)C(=O)O [VPA, valproic acid]
effect on mouse SCNT [1]: no effect

Placental weight at term (g ± SD) [6]: 0.28 ± 0.07 g
SMILES: CC(/C=C/C(=O)NO)=C\[C@@H](C)C(=O)c1ccc(N(C)C)cc1 [TSA, trichostatin A, reference compound]
No. of cloned offspring ([2]; 5 nM): 1
No. of implantations ([2]; 5 nM): 6
No. of placentas only ([2]; 5 nM): 0 (0)
cloned offspring (%) ([2]; 5 nM): 6.7%
implantations (%) ([2]; 5 nM): 40.0%
placentas only (%) ([2]; 5 nM): 0 (0) %
EU fluorescence intensity / effect on ZGA at the two-cell stage [3]: no adverse effects on ZGA
No. of four-cell embryos at 48 h ([4]; 5 nM, 8 h treatment, Table 1): 45
No. of morula/blast at 72 h ([4]; 5 nM, 8 h treatment, Table 1): 32
No. of two-cell embryos at 24 h ([4]; 5 nM, 8 h treatment, Table 1): 49
four-cell embryos at 48 h (% per 2 cells) ([4]; 5 nM, 8 h treatment, Table 1): 91.8%
morula/blast at 72 h (% per 2 cells) ([4]; 5 nM, 8 h treatment, Table 1): 65.3%
two-cell embryos at 24 h (%) ([4]; 5 nM, 8 h treatment, Table 1): 76.5%
No. of two-cell embryos at 24 h ([4]; 5 nM, 8 h treatment, Table 2): 133
two-cell embryos at 24 h (%) ([4]; 5 nM, 8 h treatment, Table 2): 86.9%
Blastocysts at 96 h (% per two cells) [4, 7]: 68.2%
Morulae at 96 h (% per two cells) [4, 7]: 0 (0) %
No. of embryos at 96 h, Blastocysts [4, 7]: 15
No. of embryos at 96 h, Morulae [4, 7]: 0 (0)
No. of four-cell embryos at 48 h [4, 7]: 19
No. of two-cell embryos at 24 h [4, 7]: 22
four-cell embryos at 48 h (% per two cells) [4, 7]: 86.4%
two-cell embryos at 24 h (%) [4, 7]: 100%
No. of implantations ([5]; 5 nM): 69
No. of offspring ([5]; 5 nM): 8
No. of placentas only ([5]; 5 nM): 3
implantations (%) ([5]; 5 nM): 63.3%
offspring (%) ([5]; 5 nM): 7.3%
placentas only (%) ([5]; 5 nM): 2.8%
pup rates (birth rates of clones), range over both transfer series ([5]; morula/blastocyst and two-cell transfer experiments): 6.7–7.3%
pup rates per embryos transferred ([1]; mouse SCNT-derived embryos): more than 5%
Body weight at term (g ± SD) [6]: 1.57 ± 0.15 g

SMILES: O=C(CCCCC[C@@H]1NC(=O)[C@H]2CCCN2C(=O)[C@@H]2CCCCCCCCCC[C@@H](NC1=O)C(=O)N2)NO [Ky-309]
No. of cloned offspring ([2]; 5 nM): 0 (0)
No. of implantations ([2]; 5 nM): 4
No. of placentas only ([2]; 5 nM): 0 (0)
cloned offspring (%) ([2]; 5 nM): 0 (0) %
implantations (%) ([2]; 5 nM): 19.0%
placentas only (%) ([2]; 5 nM): 0 (0) %
No. of cloned offspring ([2]; 100 nM): 1
No. of implantations ([2]; 100 nM): 4
No. of placentas only ([2]; 100 nM): 1
cloned offspring (%) ([2]; 100 nM): 16.7%
implantations (%) ([2]; 100 nM): 66.7%
placentas only (%) ([2]; 100 nM): 16.7%
EU fluorescence intensity / effect on ZGA at the two-cell stage [3]: no adverse effects on ZGA
No. of two-cell embryos at 24 h ([4]; 0.5 nM, 8 h treatment, Table 2): 251
two-cell embryos at 24 h (%) ([4]; 0.5 nM, 8 h treatment, Table 2): 87.2%
No. of two-cell embryos at 24 h ([4]; 1 nM, 8 h treatment, Table 2): 190
two-cell embryos at 24 h (%) ([4]; 1 nM, 8 h treatment, Table 2): 76.9%
No. of four-cell embryos at 48 h ([4]; 5 nM, 8 h treatment, Table 1): 89
No. of morula/blast at 72 h ([4]; 5 nM, 8 h treatment, Table 1): 61
No. of two-cell embryos at 24 h ([4]; 5 nM, 8 h treatment, Table 1): 106
four-cell embryos at 48 h (% per 2 cells) ([4]; 5 nM, 8 h treatment, Table 1): 84.0%
morula/blast at 72 h (% per 2 cells) ([4]; 5 nM, 8 h treatment, Table 1): 57.5%
two-cell embryos at 24 h (%) ([4]; 5 nM, 8 h treatment, Table 1): 93.8%
No. of two-cell embryos at 24 h ([4]; 5 nM, 8 h treatment, Table 2): 66
two-cell embryos at 24 h (%) ([4]; 5 nM, 8 h treatment, Table 2): 90.4%
No. of four-cell embryos at 48 h ([4]; 100 nM, 8 h treatment, Table 1): 27
No. of morula/blast at 72 h ([4]; 100 nM, 8 h treatment, Table 1): 6
No. of two-cell embryos at 24 h ([4]; 100 nM, 8 h treatment, Table 1): 58
four-cell embryos at 48 h (% per 2 cells) ([4]; 100 nM, 8 h treatment, Table 1): 46.6%
morula/blast at 72 h (% per 2 cells) ([4]; 100 nM, 8 h treatment, Table 1): 10.3%
two-cell embryos at 24 h (%) ([4]; 100 nM, 8 h treatment, Table 1): 84.0%
developmental block / embryotoxicity in SCNT-derived embryos (in words) ([4]; treatment at the one-cell stage): embryonic toxicity; also recorded: moderate two-cell developmental block
No. of implantations ([5]; 0.5 nM): 32
No. of offspring ([5]; 0.5 nM): 1
No. of placentas only ([5]; 0.5 nM): 0 (0)
implantations (%) ([5]; 0.5 nM): 38.1%
offspring (%) ([5]; 0.5 nM): 1.2%
placentas only (%) ([5]; 0.5 nM): 0 (0) %
No. of implantations ([5]; 1 nM): 21
No. of offspring ([5]; 1 nM): 0 (0)
No. of placentas only ([5]; 1 nM): 0 (0)
implantations (%) ([5]; 1 nM): 30.9%
offspring (%) ([5]; 1 nM): 0 (0) %
placentas only (%) ([5]; 1 nM): 0 (0) %
No. of implantations ([5]; 5 nM): 33
No. of offspring ([5]; 5 nM): 1
No. of placentas only ([5]; 5 nM): 2
implantations (%) ([5]; 5 nM): 50.0%
offspring (%) ([5]; 5 nM): 1.5%
placentas only (%) ([5]; 5 nM): 3.0%
Body weight at term (g ± SD) [6]: 1.61 ± 0.21 g
Placental weight at term (g ± SD) [6]: 0.31 ± 0.05 g
